Assay [1] deals with ECHCG. Nature of the assay: Post-emergence herbicidal action against ECHCG. As to conditions: 80 g/ha, visual assessment about 3 weeks after treatment vs untreated controls. The assay is classed as in vivo, Echinochloa crus-galli. Summed up:
(§1)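 Weeds were grown in sandy loam in a greenhouse and treated at the one-leaf stage, 2 to 3 weeks after sowing. WP or EC formulations were sprayed onto green parts at 600 to 800 l/ha water with 0.2% wetting agent. Visual % action versus untreated controls was scored after about 3 weeks.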

For assay [2], the system named is ALOMY. Nature of the assay: Post-emergence herbicidal action against ALOMY. The assay is classed as in vivo, Alopecurus myosuroides. The following applies: 80 g/ha, visual assessment after about 3 weeks. Summed up: as §1
For assay [3], the system named is SETVI. Put plainly: Pre-emergence herbicidal action against SETVI. The assay is classed as in vivo, Setaria viridis. As to conditions: 320 g/ha, scored visually after 3 weeks vs untreated controls. The gist of the method:
(§2)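 Scoring is visual, 3 weeks post-application, on a 0 to 100% scale relative to untreated controls (100% = plants died). Treatment is pre-emergence: aqueous suspensions or emulsions applied to the covering soil at 600 to 800 L/ha with 0.2% wetting agent.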

A further assay relates to ABUTH. Nature of the assay: Post-emergence herbicidal action against ABUTH. The assay is classed as in vivo, Abutylon threophrasti. The following applies: 80 g/ha, visual assessment about 3 weeks after treatment vs untreated controls. Summed up: as §1
Assay [4] relates to VIOTR. Nature of the assay: Post-emergence herbicidal action against VIOTR. As to conditions: 80 g/ha, visual assessment about 3 weeks after treatment vs untreated controls. The assay is classed as in vivo, Viola tricolor. The protocol:
(§3) Seeds of monocotyledonous and dicotyledonous weed and crop plants are laid out in sandy loam soil in wood-fiber pots, covered with soil and cultivated in a greenhouse under good growth conditions. 2 to 3 weeks after sowing, the test plants are treated at the one-leaf stage. The compounds of the invention, formulated in the form of wettable powders (WP) or as emulsion concentrates (EC), are then sprayed onto the green parts of the plants as aqueous suspension or emulsion at a water application rate equating to 600 to 800 l/ha with addition of 0.2% wetting agent. After the test plants have been left to stand in the greenhouse under optimal growth conditions for about 3 weeks, the action of the preparations is assessed visually in comparison to untreated controls (herbicidal action in percent (%): 100% activity=the plants have died, 0% activity=like control plants).

Assay [5] relates to SETVI. Put plainly: Post-emergence herbicidal action against SETVI. The assay is classed as in vivo, Setaria viridis. As to conditions: 80 g/ha, visual assessment about 3 weeks after treatment vs untreated controls. Summed up: as §1
For assay [6], the system named is AMARE. Put plainly: Pre-emergence herbicidal action against AMARE. As to conditions: 320 g/ha. The assay is classed as in vivo, Amaranthus retroflexus. The gist of the method: as §2
Assay [7] relates to LOLRI. Put plainly: Pre-emergence herbicidal action against LOLRI (Table 8, titled post-emergence at 320 g/ha). The assay is classed as in vivo, Lolium rigidum. The following applies: table stands in the pre-emergence section. Summed up: as §2
The test system of assay [8] is VIOTR. Put plainly: Pre-emergence herbicidal action against VIOTR. The assay is classed as in vivo, Viola tricolor. The following applies: 320 g/ha. Summed up: as §2
Assay [9] deals with AVEFA. Put plainly: Pre-emergence herbicidal action against AVEFA. The following applies: 320 g/ha, scored visually after 3 weeks vs untreated controls. The assay is classed as in vivo, Avena fatua. Summed up: as §2
The subject of assay [10] is ECHCG. Put plainly: Pre-emergence herbicidal action against ECHCG. The assay is classed as in vivo, Echinochloa crus-galli. As to conditions: 320 g/ha, scored visually after 3 weeks vs untreated controls. The gist of the method:
as §2

The test system of another assay is POLCO. Put plainly: Pre-emergence herbicidal action against POLCO. As to conditions: 320 g/ha. The assay is classed as in vivo, Polygonum convolvulus. Summed up: as §2
The next assay deals with MATIN. Nature of the assay: Pre-emergence herbicidal action against MATIN. The assay is classed as in vivo. The following applies: 320 g/ha. Summed up: as §2
Assay [11] has as its system LOLRI. Nature of the assay: Post-emergence herbicidal action against LOLRI. The assay is classed as in vivo, Lolium rigidum. The following applies: 80 g/ha, visual assessment about 3 weeks after treatment vs untreated controls. Summed up:
as §1

For assay [12], the system named is ALOMY. Put plainly: Pre-emergence herbicidal action against ALOMY. As to conditions: 320 g/ha, scored visually after 3 weeks vs untreated controls. The assay is classed as in vivo, Alopecurus myosuroides. The gist of the method: as §2
The subject of assay [13] is AVEFA. Nature of the assay: Post-emergence herbicidal action against AVEFA. The assay is classed as in vivo, Avena fatua. As to conditions: 80 g/ha, visual assessment after about 3 weeks. The gist of the method:
as §1

For assay [14], the system named is DIGSA. Nature of the assay: Post-emergence herbicidal action against DIGSA. The assay is classed as in vivo, Digitaria sanguinalis. The following applies: 80 g/ha, visual assessment about 3 weeks after treatment vs untreated controls. The gist of the method: as §1
The subject of assay [15] is DIGSA. Put plainly: Pre-emergence herbicidal action against DIGSA. The assay is classed as in vivo, Digitaria sanguinalis. As to conditions: 320 g/ha, scored visually after 3 weeks vs untreated controls. Summed up:
as §2

Assay [16] relates to AMARE. Put plainly: Post-emergence herbicidal action against AMARE. The assay is classed as in vivo, Amaranthus retroflexus. As to conditions: 80 g/ha, visual assessment about 3 weeks after treatment vs untreated controls. The protocol:
as §3

Experimental findings from patent US20220386606A1, “SPECIFICALLY SUBSTITUTED 3-PHENYL-5-SPIROCYCLOPENTYL-3-PYRROLIN-2-ONES AND THEIR USE AS HERBICIDES” (Bayer Aktiengesellschaft, priority 2019, published 2022) are described below.

For `CC#Cc1cc(C)c(C2=C(O)C3(CCC(COC)C3)NC2=O)c(Br)c1` (stereo not shown) [Example I-19], in the assay on ECHCG [1], the “Post-emergence action against ECHCG in %” value is on record as 100%. In addition, the “Post-emergence action against ALOMY in %” value in the assay on ALOMY [2] was 100%. Further, the “Pre-emergence action against SETVI in %” value with SETVI [3] is given as 100%. Further, the “Post-emergence action against ABUTH in %” value in the assay with ABUTH stood at 90%. For the same compound, the “Post-emergence action against VIOTR in %” value with VIOTR [4] worked out at 80%. Moreover, the “Post-emergence action against SETVI in %” value in the assay with SETVI [5] amounted to 100%. The “Pre-emergence action against AMARE in %” value in the assay on AMARE [6] stood at 100%. Further, in the assay on LOLRI [7], the “Pre-emergence herbicidal action against LOLRI in %” value came out at 100%. The “Pre-emergence action against VIOTR in %” value in the assay on VIOTR [8] was found to be 100%. In the assay with AVEFA [9], the “Pre-emergence action against AVEFA in %” value is on record as 100%. For the same compound, the “Pre-emergence action against ECHCG in %” value in the assay with ECHCG [10] is 100%. For the same compound, the “Pre-emergence action against POLCO in %” value in the assay on POLCO came to 100%. In the assay with MATIN, the “Pre-emergence action against MATIN in %” value worked out at 80%. The “Post-emergence action against LOLRI in %” value in the assay on LOLRI [11] was found to be 100%. Besides, the “Pre-emergence action against ALOMY in %” value in the assay with ALOMY [12] stood at 100%. For the same compound, the “Post-emergence action against AVEFA in %” value with AVEFA [13] is 90%. The “Post-emergence action against DIGSA in %” value with DIGSA [14] is 100%. Further, the “Pre-emergence action against DIGSA in %” value in the assay with DIGSA [15] came out at 100%.
For the compound `CC#Cc1cc(C)c(C2=C(O)C3(CCC(COC)C3)NC2=O)c(OC)c1` (stereo not shown) [Example I-31], the “Post-emergence action against ECHCG in %” value in the assay with ECHCG [1] is on record as 100%. In addition, the “Post-emergence action against ALOMY in %” value in the assay with ALOMY [2] is 100%. Besides, the “Pre-emergence action against SETVI in %” value in the assay on SETVI [3] amounted to 100%. For the same compound, the “Post-emergence action against ABUTH in %” value with ABUTH is 80%. Moreover, the “Post-emergence action against SETVI in %” value in the assay on SETVI [5] is listed as 100%. Besides, in the assay on LOLRI [7], the “Pre-emergence herbicidal action against LOLRI in %” value turned out to be 100%. For the same compound, in the assay with VIOTR [8], the “Pre-emergence action against VIOTR in %” value is given as 80%. For the same compound, in the assay with AVEFA [9], the “Pre-emergence action against AVEFA in %” value is on record as 80%. The “Pre-emergence action against ECHCG in %” value in the assay with ECHCG [10] is 100%. Besides, the “Post-emergence action against AMARE in %” value in the assay on AMARE [16] was 80%. The “Post-emergence action against LOLRI in %” value in the assay on LOLRI [11] is given as 100%. Moreover, the “Pre-emergence action against ALOMY in %” value in the assay on ALOMY [12] is 100%. Moreover, the “Post-emergence action against AVEFA in %” value in the assay with AVEFA [13] came to 100%. In the assay with DIGSA [14], the “Post-emergence action against DIGSA in %” value is 100%. Also, the “Pre-emergence action against DIGSA in %” value in the assay with DIGSA [15] is given as 100%.
For the compound `CC#Cc1cc(C)c(C2=C(O)C3(CCC(COC)C3)NC2=O)c(F)c1` (stereo not shown) [Example I-36], the “Post-emergence action against ECHCG in %” value with ECHCG [1] came to 100%. For the same compound, the “Post-emergence action against ALOMY in %” value with ALOMY [2] is given as 100%. The “Pre-emergence action against SETVI in %” value with SETVI [3] turned out to be 100%. The “Post-emergence action against ABUTH in %” value in the assay on ABUTH was found to be 80%. The “Pre-emergence action against AMARE in %” value in the assay on AMARE [6] was 90%. The “Pre-emergence herbicidal action against LOLRI in %” value in the assay on LOLRI [7] was determined as 100%. Moreover, the “Pre-emergence action against VIOTR in %” value in the assay with VIOTR [8] is reported as 80%. The “Pre-emergence action against AVEFA in %” value in the assay on AVEFA [9] came out at 80%. In the assay with ECHCG [10], the “Pre-emergence action against ECHCG in %” value is 100%. Further, the “Post-emergence action against AMARE in %” value in the assay with AMARE [16] turned out to be 80%. For the same compound, the “Post-emergence action against LOLRI in %” value with LOLRI [11] is reported as 100%. The “Pre-emergence action against ALOMY in %” value in the assay on ALOMY [12] is recorded as 100%. The “Post-emergence action against AVEFA in %” value in the assay with AVEFA [13] came out at 100%. Also, the “Post-emergence action against DIGSA in %” value in the assay with DIGSA [14] was 100%. For the same compound, the “Pre-emergence action against DIGSA in %” value in the assay on DIGSA [15] came to 100%.
For `CC#Cc1cc(F)c(C2=C(O)C3(CCC(COC)C3)NC2=O)c(OC)c1` (stereo not shown) [Example I-40], in the assay on ECHCG [1], the “Post-emergence action against ECHCG in %” value came out at 100%. For the same compound, the “Post-emergence action against ALOMY in %” value in the assay on ALOMY [2] stood at 100%. For the same compound, the “Pre-emergence action against SETVI in %” value in the assay on SETVI [3] is on record as 100%. Also, the “Post-emergence action against SETVI in %” value in the assay on SETVI [5] amounted to 100%. In addition, in the assay with LOLRI [7], the “Pre-emergence herbicidal action against LOLRI in %” value worked out at 90%. For the same compound, in the assay with AVEFA [9], the “Pre-emergence action against AVEFA in %” value was determined as 100%. In addition, the “Pre-emergence action against ECHCG in %” value with ECHCG [10] is listed as 100%. The “Post-emergence action against AMARE in %” value in the assay on AMARE [16] came to 80%. The “Post-emergence action against LOLRI in %” value with LOLRI [11] is on record as 90%. Also, in the assay with ALOMY [12], the “Pre-emergence action against ALOMY in %” value is on record as 100%. Besides, the “Post-emergence action against AVEFA in %” value in the assay with AVEFA [13] came to 90%. Besides, in the assay with DIGSA [14], the “Post-emergence action against DIGSA in %” value was found to be 100%. Moreover, the “Pre-emergence action against DIGSA in %” value in the assay with DIGSA [15] was 100%.
